Results: US20220081412A1, “QUINOLINYL-PYRAZINE-CARBOXAMIDE COMPOUNDS AND USES THEREOF” (The Regents of the University of Michigan, priority 2018, published 2022)

Tested on: MIA PaCa-2 cells
Test: Bru-seq analysis for nascent RNA synthesis (log2FC of genes, GSEA gene sets)
Format: cell-based, human
[1] = downregulated gene sets, TFBT, 4 h, MIA PaCa-2 cells
[2] = gene set ADDYA_ERYTHROID_DIFFERENTIATION_BY_HEMIN, 4 h
[3] = gene set AMIT_SERUM_RESPONSE_60_MCF10A, 4 h
[4] = gene set BURTON_ADIPOGENESIS_10, 4 h
[5] = gene set CHANG_CORE_SERUM_RESPONSE_DN, 4 h
[6] = gene set CUI_GLUCOSE_DEPRIVATION, 4 h
[7] = gene set DACOSTA_UV_RESPONSE_VIA_ERCC3_UP, 4 h
[8] = gene set DAZARD_RESPONSE_TO_UV_NHEK_UP, 4 h
[9] = gene set DIRMEIER_LMP1_RESPONSE_EARLY, 4 h
[10] = gene set ENK_UV_RESPONSE_KERATINOCYTE_UP, 4 h
[11] = gene set GEORGANTAS_HSC_MARKERS, 4 h
[12] = gene set GO_ALCOHOL_BIOSYNTHETIC_PROCESS, 4 h
[13] = gene set GO_ALCOHOL_METABOLIC_PROCESS, 4 h
[14] = gene set GO_CELLULAR_LIPID_CATABOLIC_PROCESS, 4 h
[15] = gene set GO_CELLULAR_RESPONSE_TO_TOPOLOGICALLY_INCORRECT_PROTEIN, 4 h
[16] = gene set GO_CHROMATIN_ASSEMBLY_OR_DISASSEMBLY, 4 h
[17] = gene set GO_DNA_PACKAGING_COMPLEX, 4 h
[18] = gene set GO_ER_NUCLEUS_SIGNALING_PATHWAY, 4 h
[19] = gene set GO_FATTY_ACID_BIOSYNTHETIC_PROCESS, 4 h
[20] = gene set GO_INTRINSIC_COMPONENT_OF_ENDOPLASMIC_RETICULUM_MEMBRANE, 4 h
[21] = gene set GO_IRE1_MEDIATED_UNFOLDED_PROTEIN_RESPONSE, 4 h
[22] = gene set GO_ISOPRENOID_BIOSYNTHETIC_PROCESS, 4 h
[23] = gene set GO_LYSOSOMAL_LUMEN, 4 h
[24] = gene set GO_NUCLEAR_NUCLEOSOME, 4 h
[25] = gene set GO_ORGANIC_HYDROXY_COMPOUND_BIOSYNTHETIC_PROCESS, 4 h
[26] = gene set GO_PROTEIN_DNA_COMPLEX, 4 h
[27] = gene set GO_PROTEIN_DNA_COMPLEX_SUBUNIT_ORGANIZATION, 4 h
[28] = gene set GO_REGULATION_OF_ENDOPLASMIC_RETICULUM_STRESS_INDUCED_INTRINSIC_APOPTOTIC_SIGNALING_PATHWAY, 4 h
[29] = gene set GO_RESPONSE_TO_ENDOPLASMIC_RETICULUM_STRESS, 4 h
[30] = gene set GO_RESPONSE_TO_TOPOLOGICALLY_INCORRECT_PROTEIN, 4 h
[31] = gene set GO_SMALL_MOLECULE_BIOSYNTHETIC_PROCESS, 4 h
[32] = gene set GO_STEROID_BIOSYNTHETIC_PROCESS, 4 h
[33] = gene set GO_STEROID_METABOLIC_PROCESS, 4 h
[34] = gene set GO_STEROL_BIOSYNTHETIC_PROCESS, 4 h
[35] = gene set GO_STEROL_METABOLIC_PROCESS, 4 h
[36] = gene set HALLMARK_ADIPOGENESIS, 4 h
[37] = gene set HALLMARK_ANDROGEN_RESPONSE, 4 h
[38] = gene set HALLMARK_APOPTOSIS, 4 h
[39] = gene set HALLMARK_CHOLESTEROL_HOMEOSTASIS, 4 h
[40] = gene set HALLMARK_COAGULATION, 4 h
[41] = gene set HALLMARK_DNA_REPAIR, 4 h
[42] = gene set HALLMARK_EPITHELIAL_MESENCHYMAL_TRANSITION, 4 h
[43] = gene set HALLMARK_ESTROGEN_RESPONSE_EARLY, 4 h
[44] = gene set HALLMARK_ESTROGEN_RESPONSE_LATE, 4 h
[45] = gene set HALLMARK_FATTY_ACID_METABOLISM, 4 h
[46] = gene set HALLMARK_GLYCOLYSIS, 4 h
[47] = gene set HALLMARK_HEME_METABOLISM, 4 h

## CCN(CC)CCCC(C)Nc1cnc(C(=O)Nc2cc(C)cc3cccnc23)cn1 (stereo not drawn) [J4, 5-((5-(diethylamino)pentan-2-yl)amino)-N-(6-methylquinolin-8-yl)pyrazine-2-carboxamide]
[1]
  ES PBX1_02: −0.282
  ES PIT1_Q6: −0.263
  ES POU1F1_Q6: −0.236
  ES TAANNYSGCG_UNKNOWN: −0.253
  ES TAAWWATAG_RSRFC4_Q2: −0.271
  ES TAAYNRNNTCC_UNKNOWN: −0.314
  ES YKACATTT_UNKNOWN: −0.221
  NES BRN2_01: −1.086
  NES CDPCR1_01: −1.030
  NES CDP_01: −1.041
  NES EN1_01: −1.062
  NES FOXJ2_02: −1.154
  NES GGCKCATGS_UNKNOWN: −1.621
  NES HMEF2_Q6: −1.037
  NES HNF1_Q6: −1.145
  NES HOX13_01: −1.144
  NES IK1_01: −1.074
  NES IRF2_01: −1.322
  NES MEF2_02: −0.965
  NES MEF2_Q6_01: −0.985
  NES MEIS1BHOXA9_01: −1.269
  NES NKX3A_01: −1.213
  NES PAX8_01: −1.304
  NES PBX1_02: −1.130
  NES PIT1_Q6: −1.156
  NES POU1F1_Q6: −1.032
  NES TAANNYSGCG_UNKNOWN: −1.012
  NES TAAWWATAG_RSRFC4_Q2: −1.112
  NES TAAYNRNNTCC_UNKNOWN: −1.303
  NES YKACATTT_UNKNOWN: −1.039
[2]
  ES: 0.708
  NES: 2.307
[3]
  ES: 0.728
  NES: 2.228
[4]
  ES: 0.790
  NES: 2.254
[5]
  ES: 0.624
  NES: 2.370
[6]
  ES: 0.760
  NES: 2.383
[7]
  ES: 0.569
  NES: 2.301
[8]
  ES: 0.602
  NES: 2.291
[9]
  ES: 0.764
  NES: 2.410
[10]
  ES: 0.590
  NES: 2.464
[11]
  ES: 0.736
  NES: 2.234
[12]
  ES: 0.728
  NES: 2.531
[13]
  ES: 0.543
  NES: 2.127
[14]
  ES: 0.577
  NES: 2.080
[15]
  ES: 0.635
  NES: 2.333
[16]
  ES: 0.576
  NES: 2.165
Gene set GO_DNA_PACKAGING, 4 h
  ES: 0.570
  NES: 2.161
[17]
  ES: 0.755
  NES: 2.422
[18]
  ES: 0.739
  NES: 2.156
[19]
  ES: 0.626
  NES: 2.043
[20]
  ES: 0.577
  NES: 2.075
[21]
  ES: 0.690
  NES: 2.300
[22]
  ES: 0.796
  NES: 2.093
[23]
  ES: 0.637
  NES: 2.060
[24]
  ES: 0.832
  NES: 2.218
[25]
  ES: 0.651
  NES: 2.372
[26]
  ES: 0.619
  NES: 2.288
[27]
  ES: 0.521
  NES: 2.041
[28]
  ES: 0.774
  NES: 2.132
[29]
  ES: 0.526
  NES: 2.067
[30]
  ES: 0.616
  NES: 2.337
[31]
  ES: 0.555
  NES: 2.227
[32]
  ES: 0.784
  NES: 2.632
[33]
  ES: 0.667
  NES: 2.432
[34]
  ES: 0.878
  NES: 2.656
[35]
  ES: 0.748
  NES: 2.604
[36]
  ES: 0.465
  NES: 1.784
[37]
  ES: 0.529
  NES: 1.875
[38]
  ES: 0.485
  NES: 1.804
[39]
  ES: 0.759
  NES: 2.533
[40]
  ES: 0.516
  NES: 1.624
[41]
  ES: 0.377
  NES: 1.422
[42]
  ES: 0.407
  NES: 1.436
[43]
  ES: 0.458
  NES: 1.719
[44]
  ES: 0.443
  NES: 1.631
[45]
  ES: 0.551
  NES: 2.054
[46]
  ES: 0.417
  NES: 1.603
[47]
  ES: 0.389
  NES: 1.480
Gene set HALLMARK_HYPOXIA, 4 h
  ES: 0.591
  NES: 2.235
